Assays:
[1] = biological target: Hormonally up-regulated neu tumor-associated kinase (Homo sapiens) (UniProt P57058); details: Compound concentration 100.0 nM
[2] = biological target: Serine/threonine-protein kinase Sgk1 (Homo sapiens) (UniProt O00141); details: Compound concentration 100.0 nM
[3] = biological target: Serine/threonine-protein kinase BRSK2 (Homo sapiens) (UniProt Q8IWQ3); details: Compound concentration 100.0 nM
[4] = biological target: Phosphatidylinositol 4-phosphate 5-kinase type-1 alpha (Homo sapiens) (UniProt Q99755); details: Compound concentration 100.0 nM
Sequence of Phosphatidylinositol 4-phosphate 5-kinase type-1 alpha (Homo sapiens) (Q99755 whole entry): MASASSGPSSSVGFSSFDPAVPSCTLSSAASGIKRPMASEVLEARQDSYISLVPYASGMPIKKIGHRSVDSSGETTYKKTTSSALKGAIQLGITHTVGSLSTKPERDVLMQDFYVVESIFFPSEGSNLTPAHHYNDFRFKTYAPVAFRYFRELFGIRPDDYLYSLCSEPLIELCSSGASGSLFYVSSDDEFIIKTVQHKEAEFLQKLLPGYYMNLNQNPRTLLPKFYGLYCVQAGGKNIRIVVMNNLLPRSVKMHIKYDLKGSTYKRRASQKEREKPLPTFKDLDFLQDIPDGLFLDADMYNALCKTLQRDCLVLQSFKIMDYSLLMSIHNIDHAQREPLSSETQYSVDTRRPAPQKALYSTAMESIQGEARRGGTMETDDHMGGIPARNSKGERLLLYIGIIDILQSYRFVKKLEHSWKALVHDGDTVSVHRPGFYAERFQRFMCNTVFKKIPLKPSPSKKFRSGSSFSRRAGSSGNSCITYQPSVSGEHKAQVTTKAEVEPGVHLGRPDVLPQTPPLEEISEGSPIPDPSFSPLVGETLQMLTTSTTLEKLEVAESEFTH

[5] = biological target: Wee1-like protein kinase (Homo sapiens) (UniProt P30291); details: Compound concentration 100.0 nM
[6] = biological target: Interleukin-1 receptor-associated kinase 1 (Homo sapiens) (UniProt P51617); details: Compound concentration 100.0 nM
[7] = biological target: Serine/threonine-protein kinase Nek4 (Homo sapiens) (UniProt P51957); details: Compound concentration 100.0 nM
[8] = biological target: T1, 5-hydroxytryptamine receptor 2C (Homo sapiens) (UniProt P28335); details: Compound concentration 10.0 uM
T1 sequence (whole entry): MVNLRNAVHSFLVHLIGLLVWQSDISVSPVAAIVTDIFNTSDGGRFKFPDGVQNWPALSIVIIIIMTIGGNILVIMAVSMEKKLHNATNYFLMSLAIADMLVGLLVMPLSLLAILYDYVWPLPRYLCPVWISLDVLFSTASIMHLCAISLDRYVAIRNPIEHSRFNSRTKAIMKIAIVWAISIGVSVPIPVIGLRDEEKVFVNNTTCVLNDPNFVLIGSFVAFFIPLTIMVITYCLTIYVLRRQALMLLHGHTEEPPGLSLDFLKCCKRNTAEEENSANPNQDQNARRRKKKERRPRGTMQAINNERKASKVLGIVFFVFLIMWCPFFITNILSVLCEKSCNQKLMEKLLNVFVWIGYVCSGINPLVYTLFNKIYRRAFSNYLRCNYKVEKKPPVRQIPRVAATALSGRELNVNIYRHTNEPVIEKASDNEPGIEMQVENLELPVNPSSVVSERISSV

[9] = biological target: Beta-2 adrenergic receptor (Homo sapiens) (UniProt P07550); details: Compound concentration 10.0 uM
[10] = biological target: Angiopoietin-1 receptor (Homo sapiens) (UniProt Q02763); details: Compound concentration 100.0 nM
[11] = biological target: Cyclin-dependent kinase 16 (Homo sapiens) (UniProt Q00536); details: Compound concentration 100.0 nM
[12] = biological target: Cyclin-dependent kinase 4 (Homo sapiens) (UniProt P11802); details: Compound concentration 100.0 nM
[13] = biological target: Serine/threonine-protein kinase 36 (Homo sapiens) (UniProt Q9NRP7); details: Compound concentration 100.0 nM
[14] = biological target: Dual specificity mitogen-activated protein kinase kinase 3 (Homo sapiens) (UniProt P46734); details: Compound concentration 100.0 nM
[15] = biological target: Dual specificity mitogen-activated protein kinase kinase 6 (Homo sapiens) (UniProt P52564); details: Compound concentration 100.0 nM
[16] = biological target: Casein kinase I isoform alpha-like (Homo sapiens) (UniProt Q8N752); details: Compound concentration 100.0 nM
[17] = biological target: 5-hydroxytryptamine receptor 1D (Homo sapiens) (UniProt P28221); details: Compound concentration 10.0 uM
[18] = biological target: Serine/threonine-protein kinase D1 (Homo sapiens) (UniProt Q15139); details: Compound concentration 100.0 nM
[19] = system: Phosphatidylinositol 4,5-bisphosphate 3-kinase catalytic subunit alpha isoform (Homo sapiens), P42336 [H1047Y]; details: Compound concentration 100.0 nM
Sequence of Phosphatidylinositol 4,5-bisphosphate 3-kinase catalytic subunit alpha isoform (Homo sapiens), P42336 [H1047Y] (P42336 whole entry H1047Y, canonical isoform): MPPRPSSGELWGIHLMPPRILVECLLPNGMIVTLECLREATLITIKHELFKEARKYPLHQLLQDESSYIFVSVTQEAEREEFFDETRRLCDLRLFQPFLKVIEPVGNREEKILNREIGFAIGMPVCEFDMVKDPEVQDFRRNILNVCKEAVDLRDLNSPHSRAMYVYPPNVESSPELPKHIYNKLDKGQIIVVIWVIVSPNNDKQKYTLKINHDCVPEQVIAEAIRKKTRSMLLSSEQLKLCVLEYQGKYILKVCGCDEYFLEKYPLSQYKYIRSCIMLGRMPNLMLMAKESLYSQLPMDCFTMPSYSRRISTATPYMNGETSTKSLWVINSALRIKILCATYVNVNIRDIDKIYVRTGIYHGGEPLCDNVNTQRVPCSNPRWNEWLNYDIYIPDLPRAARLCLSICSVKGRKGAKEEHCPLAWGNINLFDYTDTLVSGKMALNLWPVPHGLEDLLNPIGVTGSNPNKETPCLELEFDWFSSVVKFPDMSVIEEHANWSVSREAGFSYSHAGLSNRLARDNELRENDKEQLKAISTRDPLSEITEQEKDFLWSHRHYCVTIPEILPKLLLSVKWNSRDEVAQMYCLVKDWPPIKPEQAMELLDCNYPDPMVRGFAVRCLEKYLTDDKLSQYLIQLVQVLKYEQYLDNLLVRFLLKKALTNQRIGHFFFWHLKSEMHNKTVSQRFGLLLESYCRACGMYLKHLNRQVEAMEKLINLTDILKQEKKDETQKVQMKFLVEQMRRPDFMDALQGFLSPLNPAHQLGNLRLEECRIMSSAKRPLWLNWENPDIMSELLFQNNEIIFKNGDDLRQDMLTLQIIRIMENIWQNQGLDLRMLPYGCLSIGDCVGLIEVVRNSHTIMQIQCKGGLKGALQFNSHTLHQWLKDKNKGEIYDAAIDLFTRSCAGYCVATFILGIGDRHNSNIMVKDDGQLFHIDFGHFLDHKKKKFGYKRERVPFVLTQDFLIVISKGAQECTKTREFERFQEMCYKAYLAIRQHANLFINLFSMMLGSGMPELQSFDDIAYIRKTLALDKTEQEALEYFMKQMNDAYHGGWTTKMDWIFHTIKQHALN

[20] = biological target: Macrophage colony-stimulating factor 1 receptor (Homo sapiens) (UniProt P07333); details: Compound concentration 100.0 nM
[21] = biological target: Cyclin-dependent kinase 2 homolog (Plasmodium falciparum (isolate 3D7)) (UniProt P61075); details: Compound concentration 100.0 nM
Sequence of Cyclin-dependent kinase 2 homolog (Plasmodium falciparum (isolate 3D7)) (P61075 whole entry): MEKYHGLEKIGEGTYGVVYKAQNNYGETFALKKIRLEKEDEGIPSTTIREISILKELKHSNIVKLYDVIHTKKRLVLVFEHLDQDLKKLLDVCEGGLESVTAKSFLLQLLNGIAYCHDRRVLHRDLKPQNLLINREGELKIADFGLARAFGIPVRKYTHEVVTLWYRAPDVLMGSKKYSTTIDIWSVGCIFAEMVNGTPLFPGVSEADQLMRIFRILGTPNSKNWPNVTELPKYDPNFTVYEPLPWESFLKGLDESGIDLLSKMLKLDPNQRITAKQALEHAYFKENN

[22] = system: Epidermal growth factor receptor (Homo sapiens), P00533 [UNDEFINED MUTATION]; details: Compound concentration 100.0 nM
[23] = biological target: Serine/threonine-protein kinase Nek1 (Homo sapiens) (UniProt Q96PY6); details: Compound concentration 100.0 nM
[24] = biological target: Serine/threonine-protein kinase WNK3 (Homo sapiens) (UniProt Q9BYP7); details: Compound concentration 100.0 nM
Sequence of Serine/threonine-protein kinase WNK3 (Homo sapiens) (Q9BYP7 whole entry): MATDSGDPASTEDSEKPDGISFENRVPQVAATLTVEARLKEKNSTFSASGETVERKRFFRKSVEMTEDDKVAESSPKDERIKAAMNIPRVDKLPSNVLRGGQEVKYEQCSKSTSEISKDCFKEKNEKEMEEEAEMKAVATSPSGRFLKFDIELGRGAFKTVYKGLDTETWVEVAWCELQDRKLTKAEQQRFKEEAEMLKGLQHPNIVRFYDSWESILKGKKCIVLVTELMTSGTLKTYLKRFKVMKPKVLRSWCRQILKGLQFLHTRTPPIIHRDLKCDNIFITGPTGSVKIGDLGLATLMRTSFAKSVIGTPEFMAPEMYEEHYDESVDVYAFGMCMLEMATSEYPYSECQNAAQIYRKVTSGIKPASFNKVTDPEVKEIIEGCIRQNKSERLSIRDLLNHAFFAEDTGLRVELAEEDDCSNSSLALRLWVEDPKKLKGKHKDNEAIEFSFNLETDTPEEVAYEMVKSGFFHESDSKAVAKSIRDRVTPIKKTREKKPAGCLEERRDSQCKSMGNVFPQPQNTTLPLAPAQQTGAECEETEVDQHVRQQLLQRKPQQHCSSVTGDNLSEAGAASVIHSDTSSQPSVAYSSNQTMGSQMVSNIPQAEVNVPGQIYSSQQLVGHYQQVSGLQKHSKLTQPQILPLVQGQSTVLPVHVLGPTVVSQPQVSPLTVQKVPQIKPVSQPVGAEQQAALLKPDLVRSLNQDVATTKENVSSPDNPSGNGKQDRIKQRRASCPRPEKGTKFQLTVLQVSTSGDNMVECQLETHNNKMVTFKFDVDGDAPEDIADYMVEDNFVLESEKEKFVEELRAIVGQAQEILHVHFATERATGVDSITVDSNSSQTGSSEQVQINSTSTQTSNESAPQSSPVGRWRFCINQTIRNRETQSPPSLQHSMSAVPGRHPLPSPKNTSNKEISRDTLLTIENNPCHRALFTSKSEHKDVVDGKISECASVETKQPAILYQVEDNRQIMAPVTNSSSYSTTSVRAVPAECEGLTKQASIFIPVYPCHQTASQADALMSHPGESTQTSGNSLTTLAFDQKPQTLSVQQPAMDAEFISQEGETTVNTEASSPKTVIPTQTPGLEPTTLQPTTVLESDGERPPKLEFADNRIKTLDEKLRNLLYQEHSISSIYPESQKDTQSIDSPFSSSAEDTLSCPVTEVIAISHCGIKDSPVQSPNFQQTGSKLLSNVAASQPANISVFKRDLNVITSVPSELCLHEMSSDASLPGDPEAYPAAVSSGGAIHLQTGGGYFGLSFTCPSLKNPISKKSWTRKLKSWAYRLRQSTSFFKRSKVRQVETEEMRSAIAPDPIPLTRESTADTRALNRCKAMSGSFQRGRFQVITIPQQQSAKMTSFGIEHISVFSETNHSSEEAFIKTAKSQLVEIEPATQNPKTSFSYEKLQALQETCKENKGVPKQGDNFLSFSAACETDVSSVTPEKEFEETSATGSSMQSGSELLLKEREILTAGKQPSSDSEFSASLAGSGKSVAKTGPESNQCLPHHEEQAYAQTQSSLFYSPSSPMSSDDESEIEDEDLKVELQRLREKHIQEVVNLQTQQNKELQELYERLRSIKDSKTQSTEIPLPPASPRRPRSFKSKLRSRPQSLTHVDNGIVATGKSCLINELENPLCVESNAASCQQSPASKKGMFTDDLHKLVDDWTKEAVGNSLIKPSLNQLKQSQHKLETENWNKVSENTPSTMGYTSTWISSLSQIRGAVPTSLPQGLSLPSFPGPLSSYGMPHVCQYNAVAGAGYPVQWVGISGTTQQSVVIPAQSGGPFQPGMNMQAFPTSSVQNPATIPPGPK

[25] = system: eIF-2-alpha kinase GCN2 (Homo sapiens), Q9P2K8 [S808G]; details: Compound concentration 100.0 nM
[26] = biological target: Inhibitor of nuclear factor kappa-B kinase subunit alpha (Homo sapiens) (UniProt O15111); details: Compound concentration 100.0 nM
[27] = biological target: Myosin-IIIb (Homo sapiens) (UniProt Q8WXR4); details: Compound concentration 100.0 nM
[28] = biological target: Dual serine/threonine and tyrosine protein kinase (Homo sapiens) (UniProt Q6XUX3); details: Compound concentration 100.0 nM
Sequence of Dual serine/threonine and tyrosine protein kinase (Homo sapiens) (Q6XUX3 whole entry): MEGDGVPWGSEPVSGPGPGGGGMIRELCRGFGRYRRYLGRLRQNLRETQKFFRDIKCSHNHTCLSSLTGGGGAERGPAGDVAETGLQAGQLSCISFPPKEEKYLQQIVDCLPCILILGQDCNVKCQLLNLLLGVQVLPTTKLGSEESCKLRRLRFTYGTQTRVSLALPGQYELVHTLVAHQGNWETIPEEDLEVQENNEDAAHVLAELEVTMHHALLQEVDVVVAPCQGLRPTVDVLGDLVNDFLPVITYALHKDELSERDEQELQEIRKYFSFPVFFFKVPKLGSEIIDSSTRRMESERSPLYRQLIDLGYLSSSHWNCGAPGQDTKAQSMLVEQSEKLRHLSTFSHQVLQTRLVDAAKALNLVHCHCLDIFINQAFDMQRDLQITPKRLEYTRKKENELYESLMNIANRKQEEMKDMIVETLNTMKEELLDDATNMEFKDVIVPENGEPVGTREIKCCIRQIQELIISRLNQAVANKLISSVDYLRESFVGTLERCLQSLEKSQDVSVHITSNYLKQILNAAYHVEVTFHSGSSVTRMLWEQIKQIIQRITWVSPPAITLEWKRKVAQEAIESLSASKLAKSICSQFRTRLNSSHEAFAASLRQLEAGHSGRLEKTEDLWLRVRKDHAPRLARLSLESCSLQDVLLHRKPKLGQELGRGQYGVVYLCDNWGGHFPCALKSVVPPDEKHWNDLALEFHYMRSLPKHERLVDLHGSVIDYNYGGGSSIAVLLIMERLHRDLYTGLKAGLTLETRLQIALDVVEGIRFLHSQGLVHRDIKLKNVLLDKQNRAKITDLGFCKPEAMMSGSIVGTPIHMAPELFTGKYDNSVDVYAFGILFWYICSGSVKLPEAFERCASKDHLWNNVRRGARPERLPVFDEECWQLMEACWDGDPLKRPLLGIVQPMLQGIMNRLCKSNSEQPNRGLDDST

[29] = biological target: Tyrosine-protein kinase CSK (Homo sapiens) (UniProt P41240); details: Compound concentration 100.0 nM
Rattus norvegicus = organism: Rattus norvegicus; details: Compound concentration 10.0 uM
[30] = biological target: Serine/threonine-protein kinase pim-2 (Homo sapiens) (UniProt Q9P1W9); details: Compound concentration 100.0 nM
[31] = biological target: Serine/threonine-protein kinase mTOR (Homo sapiens) (UniProt P42345); details: Compound concentration 100.0 nM
[32] = biological target: Tyrosine-protein kinase Mer (Homo sapiens) (UniProt Q12866); details: Compound concentration 100.0 nM
[33] = biological target: cGMP-inhibited 3',5'-cyclic phosphodiesterase 3A (Homo sapiens, UniProt Q14432); test: Biochemical assay (PDE3A)
[34] = biological target: Calcium/calmodulin-dependent protein kinase type II subunit alpha (Homo sapiens) (UniProt Q9UQM7); details: Compound concentration 100.0 nM
[35] = biological target: Atypical kinase COQ8B, mitochondrial (Homo sapiens) (UniProt Q96D53); details: Compound concentration 100.0 nM
[36] = biological target: Casein kinase I isoform gamma-1 (Homo sapiens) (UniProt Q9HCP0); details: Compound concentration 100.0 nM
[37] = biological target: Serine/threonine-protein kinase tousled-like 1 (Homo sapiens) (UniProt Q9UKI8); details: Compound concentration 100.0 nM
[38] = biological target: Dual specificity tyrosine-phosphorylation-regulated kinase 1A (Homo sapiens) (UniProt Q13627); details: Compound concentration 100.0 nM

Sequence of Serine/threonine-protein kinase Sgk1 (Homo sapiens) (O00141 whole entry): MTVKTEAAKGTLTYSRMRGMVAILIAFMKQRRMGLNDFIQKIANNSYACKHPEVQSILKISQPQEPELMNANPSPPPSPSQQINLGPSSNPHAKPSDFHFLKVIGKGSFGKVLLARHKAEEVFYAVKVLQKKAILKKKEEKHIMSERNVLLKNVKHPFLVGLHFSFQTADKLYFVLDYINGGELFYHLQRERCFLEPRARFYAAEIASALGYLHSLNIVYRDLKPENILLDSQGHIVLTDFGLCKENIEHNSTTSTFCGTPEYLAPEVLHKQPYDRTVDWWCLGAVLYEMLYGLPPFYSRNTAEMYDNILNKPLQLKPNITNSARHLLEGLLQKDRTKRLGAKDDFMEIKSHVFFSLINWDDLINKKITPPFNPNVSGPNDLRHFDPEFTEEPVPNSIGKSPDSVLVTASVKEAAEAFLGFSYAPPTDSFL

Row | SMILES | residual activity [1] | residual activity [2] | residual activity [3] | residual activity [4] | residual activity [5] | residual activity [6] | residual activity [7] | inhibition [8] | inhibition [9] | residual activity [10] | residual activity [11] | residual activity [12] | residual activity [13] | residual activity [14] | residual activity [15] | residual activity [16] | inhibition [17] | residual activity [18] | residual activity [19] | residual activity [20] | also measured
1 | CC(C)CC(=O)N1CCc2nc(-c3ccc(Br)cc3)nc(N(C)Cc3ccccc3)c2C1 [THPP-1-NC] | 86% | 99% | 94% | 100% | 100% | 100% | 100% | -6.28% | 5.63% | 100% | 100% | 100% | 78% | 100% | 100% | 100% | 22.6% | 87% | 76% | 100% | residual activity [21]: 100%; residual activity [22]: 100%; residual activity [23]: 100%; residual activity [24]: 100%; residual activity [25]: 100%; residual activity [26]: 100%; residual activity [27]: 78%; residual activity [28]: 100%; residual activity [29]: 100%; inhibition (Rattus norvegicus): 41%; residual activity [30]: 100%; residual activity [31]: 89%; residual activity [32]: 100%; Ki [33]: > 50 µM (not active); residual activity [34]: 100%; residual activity [35]: 100%; residual activity [36]: 100%; residual activity [37]: 100%; residual activity [38]: 78%
2 | COCCOc1nc(-c2ccc(Cl)nc2)nc2c1CN(C(=O)c1ncn3ccccc13)CC2 [THPP-1] | 78% | 91% | 93% | 100% | 100% | 100% | 100% | 13.3% | -0.65% | 100% | 100% | 93% | 79% | 93% | 100% | 100% | 8.09% | 90% | 79% | 100% | residual activity [21]: 100%; residual activity [22]: 80%; residual activity [23]: 100%; residual activity [24]: 100%; residual activity [25]: 100%; residual activity [26]: 100%; residual activity [27]: 67%; residual activity [28]: 100%; residual activity [29]: 100%; inhibition (Rattus norvegicus): 26.1%; residual activity [30]: 98%; residual activity [31]: 97%; residual activity [32]: 89%; Ki [33]: 3.3 µM (not active); residual activity [34]: 100%; residual activity [35]: 100%; residual activity [36]: 100%; residual activity [37]: 100%; residual activity [38]: 78%
